From PMC10374545, “A small molecule inhibitor of PTP1B and PTPN2 enhances T cell anti-tumor immunity” (Nature Communications, 2023)

Tests used:
PTPN2 = target: T1, PTPN2 (Homo sapiens, UniProt P17706); experiment: PTP inhibition assay with DiFMUP substrate (IC50); format: biochemical; conditions: DiFMUP 10 μM as substrate
T1 construct: PTPN2, residues 1-387; made in house; host or cells: E. coli BL21(DE3)
T1 sequence (P17706 1-387 isoform P17706-2): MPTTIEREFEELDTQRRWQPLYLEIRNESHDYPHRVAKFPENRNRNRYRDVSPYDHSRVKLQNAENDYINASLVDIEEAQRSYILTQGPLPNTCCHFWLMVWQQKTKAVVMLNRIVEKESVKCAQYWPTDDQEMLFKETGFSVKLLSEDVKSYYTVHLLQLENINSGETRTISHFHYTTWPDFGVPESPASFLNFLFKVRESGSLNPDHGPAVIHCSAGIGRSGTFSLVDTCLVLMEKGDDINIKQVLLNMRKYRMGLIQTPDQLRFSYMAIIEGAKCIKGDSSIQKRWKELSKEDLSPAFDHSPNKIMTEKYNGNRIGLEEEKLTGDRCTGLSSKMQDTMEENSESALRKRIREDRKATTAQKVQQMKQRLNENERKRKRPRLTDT
Method: E. coli BL21(DE3) (Novagen) was used as an expression host and the induction of protein expression was carried out in LB media with 1 mM IPTG at 18 °C overnight. Cell pellets were stored at −80 °C for subsequent protein purification.
Protein purification of PTPs for enzymatic assays was conducted at 4 °C. Frozen cell pellets were lysed by sonication in 40 ml cold lysis buffer (50 mM Tris-HCl, pH 8.0, 150 mM NaCl, 5 mM imidazole, and 1 mM PMSF) per litre cell pellet. Cell lysates were clarified by centrifugation using a Beckman JA-18 rotor for 15 min at 5308 x g. The supernatant was incubated with HisPur Ni-NTA resin (Thermo Scientific) for 2 h and then packed onto a column and washed with 50 resin volume of buffer A (50 mM Tris-HCl, pH 8.0, 500 mM NaCl, 5 mM imidazole). The His-tagged proteins were eluted with Buffer B (50 mM Tris-HCl, pH=8.0, 500 mM NaCl, 300 mM imidazole,). Pooled His-protein-containing fractions were concentrated, loaded onto a HiLoad 26/600 Superdex 75 column (GE Healthcare Biosciences) and eluted with storage buffer (50 mM Tris-HCl, pH 8.0, 150 mM NaCl, 1 mM DTT, 10% glycerol). […] The protein was aliquoted and stored at −80 °C.
(§1) The PTP kinetic assay was modified from previous reported protocols[73],[74]. […] The fluorescence signal was measured using a CLARIOstar Plus Microplate Spectrophotometer (BMG Labtech) using excitation and emission wavelengths of 340 nm and 450 nm, respectively. […]
(§2) To determine the mode of inhibition, the reactions were initiated by the addition of enzyme (final concentration for PTP1B and PTPN2 was 0.05 nM) to the reaction mixtures (0.2 ml) containing various concentrations of DiFMUP with different concentrations of the inhibitor. […] The fluorescence signal was measured using a CLARIOstar Plus Microplate Spectrophotometer (BMG Labtech) using excitation and emission wavelength of 340 nm and 450 nm, respectively. […]

PTP1B = target: T2, PTP1B (Homo sapiens, UniProt P18031); experiment: PTP inhibition assay with DiFMUP substrate (IC50); format: biochemical
T2 construct: PTP1B, residues 1-321; made in house; host or cells: E. coli BL21(DE3)
T2 sequence (P18031 1-321): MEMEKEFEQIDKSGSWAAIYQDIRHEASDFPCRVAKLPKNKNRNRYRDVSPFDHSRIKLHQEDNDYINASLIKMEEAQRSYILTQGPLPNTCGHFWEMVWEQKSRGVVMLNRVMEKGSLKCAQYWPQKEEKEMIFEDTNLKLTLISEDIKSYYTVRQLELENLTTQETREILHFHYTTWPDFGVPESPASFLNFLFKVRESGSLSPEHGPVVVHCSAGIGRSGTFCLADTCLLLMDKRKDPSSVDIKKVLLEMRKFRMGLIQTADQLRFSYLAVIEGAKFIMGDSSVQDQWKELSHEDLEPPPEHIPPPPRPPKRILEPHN
Method: Cell pellets were stored at −80 °C for subsequent protein purification.
Protein purification of PTPs for enzymatic assays was conducted at 4 °C. Frozen cell pellets were lysed by sonication in 40 ml cold lysis buffer (50 mM Tris-HCl, pH 8.0, 150 mM NaCl, 5 mM imidazole, and 1 mM PMSF) per litre cell pellet. […] The supernatant was incubated with HisPur Ni-NTA resin (Thermo Scientific) for 2 h and then packed onto a column and washed with 50 resin volume of buffer A (50 mM Tris-HCl, pH 8.0, 500 mM NaCl, 5 mM imidazole). The His-tagged proteins were eluted with Buffer B (50 mM Tris-HCl, pH=8.0, 500 mM NaCl, 300 mM imidazole,). […]
as §1, §2

IC50 (PTPN2): 1.6 ± 0.06 nM
IC50 (PTP1B; DiFMUP 10 μM as substrate): 1.84 ± 0.09 nM
IC50 values relative to those of Compound 182 (PTP1B; PTP1B and PTPN2, same conditions): approximately 3 fold
SMILES: CC(C)CCN[C@@H]1CCc2cc(O)c(N3CC(=O)NS3(=O)=O)c(F)c2C1 [ABBV-CLS-484]
